Measurements published in patent publication US6420147B1, “Haloalkaliphilic microorganisms” (Genencor International, Inc., priority 1991, dated 2002).
Positions of bridges follow the written chain, without caps; N, C: chain ends. Non-standard residues stand in square brackets, D forms with d. Residues, ends and D or L forms follow the SMILES beside them. *: point of attachment. Ileψ(thiazoline)Cys = CC[C@H](C)[C@H](N)C1=N[C@H](C(=O)*)CS1; dOrn = NCCC[C@@H](N)C(=O)O

Experiments:
[1] = tested on: Cluster 1 haloalkaliphilic bacteria; experiment: Antibiotic sensitivity, distribution of positive characters; assay type: cell-based; details: share of strains of cluster 1 (78.5% similarity level, SSM) scored positive = clear zone around antibiotic disk; Medium A agar, 37° C., up to 14 days
Description: (§1) A light suspension of bacteria in alkaline, saline, nutrient broth was spread on the surface of alkaline nutrient, saline agar (Medium A) and allowed to dry. Commercially available antibiotic susceptibility test disks (Oxoid or Mast Laboratories: Merseyside, U.K.) were applied to the agar surface. The bacteria were cultivated at 37° C. for up to 14 days. Clear zones around the antibiotic disks indicated sensitivity and were recorded as positive.

[2] = tested on: Cluster 2 haloalkaliphilic bacteria; experiment: as above; assay type: cell-based; details: share of strains of cluster 2 (78.5% similarity level, SSM) scored positive = clear zone around antibiotic disk; Medium A agar, 37° C., up to 14 days
Description: as §1

Strain 103Nt.4 = experiment: Antibiotic sensitivity (susceptibility test disks on Medium A agar); assay type: cell-based; details: antibiotic disks (contents in Appendix C), 37° C., up to 14 days
Description: as §1

Strain 98Nt.4 = experiment: as above; assay type: cell-based; details: antibiotic disks (contents in Appendix C), 37° C., up to 14 days
Description: as §1

Strain 93dLM.4 = experiment: as above; assay type: cell-based; details: antibiotic disks (contents in Appendix C), 37° C., up to 14 days
Description: as §1

Strain 95LM.4 = experiment: as above; assay type: cell-based; details: antibiotic disks (contents in Appendix C), 37° C., up to 14 days
Description: as §1

Strain 31M.4 = experiment: as above; assay type: cell-based; details: antibiotic disks (contents in Appendix C), 37° C., up to 14 days
Description: as §1

Strain 86M.4 = experiment: as above; assay type: cell-based; details: antibiotic disks (contents in Appendix C), 37° C., up to 14 days
Description: as §1

[3] = tested on: Cluster 3 haloalkaliphilic bacteria; experiment: Antibiotic sensitivity, distribution of positive characters; assay type: cell-based, haloalkaliphilic eubacteria; details: share of strains of cluster 3 (78.5% similarity level, SSM) scored positive = clear zone around antibiotic disk; Medium A agar, 37° C., up to 14 days
Description: as §1

[4] = tested on: Cluster 4 haloalkaliphilic bacteria; experiment: as above; assay type: cell-based, haloalkaliphilic eubacteria; details: share of strains of cluster 4 (78.5% similarity level, SSM) scored positive = clear zone around antibiotic disk; Medium A agar, 37° C., up to 14 days
Description: as §1

Strain 931LM.4 = experiment: Antibiotic sensitivity (susceptibility test disks on Medium A agar); assay type: cell-based; details: antibiotic disks (contents in Appendix C), 37° C., up to 14 days
Description: as §1

Row | Compound | Distribution of positive characters: antibiotic sensitivity, Cluster 1 [1] | Distribution of positive characters: antibiotic sensitivity, Cluster 2 [2] | Inhibition of growth by antibiotic (Strain 103Nt.4) | Inhibition of growth by antibiotic (Strain 98Nt.4) | Inhibition of growth by antibiotic (Strain 93dLM.4) | Inhibition of growth by antibiotic (Strain 95LM.4) | Inhibition of growth by antibiotic (Strain 31M.4) | Inhibition of growth by antibiotic (Strain 86M.4) | Distribution of positive characters: antibiotic sensitivity, Cluster 3 [3] | Distribution of positive characters: antibiotic sensitivity, Cluster 4 [4] | Inhibition of growth by antibiotic (Strain 931LM.4)
1 | CC[C@H](C)[C@H](N)C1=N[C@H](C(=O)N[C@@H](CC(C)C)C(=O)N[C@H](CCC(=O)O)C(=O)N[C@H](C(=O)N[C@H]2CCCCNC(=O)[C@H](CC(N)=O)NC(=O)[C@@H](CC(=O)O)NC(=O)[C@H](Cc3cnc[nH]3)NC(=O)[C@@H](Cc3ccccc3)NC(=O)[C@H]([C@@H](C)CC)NC(=O)[C@@H](CCCN)NC2=O)[C@@H](C)CC)CS1 [bacitracin] ({Ileψ(thiazoline)Cys}-L[dE]IK[dOrn]I[dF]H[dD]N; lactam 4-C) | 100 | 82 | not inhibited | inhibited | inhibited | inhibited | not inhibited | inhibited | 100 | 100 | 
2 | O=C(N[C@H](CO)[C@H](O)c1ccc([N+](=O)[O-])cc1)C(Cl)Cl [chloramphenicol] | 0 | 0 | not inhibited | not inhibited |  | inhibited | inhibited | not inhibited | 100 | 100 | inhibited
3 | CC(=O)O[C@H]1C[C@@]2(C)[C@@H](C[C@@H](O)[C@H]3[C@@]4(C)CC[C@@H](O)[C@@H](C)[C@@H]4CC[C@@]32C)/C1=C(\CCC=C(C)C)C(=O)O [fusidic acid] | 14 | 9 | not inhibited |  |  |  | inhibited |  | 0 | 17 | inhibited
4 | NC[C@H]1O[C@H](O[C@H]2[C@H](O)[C@@H](O[C@H]3O[C@H](CO)[C@@H](O)[C@H](N)[C@H]3O)[C@H](N)C[C@@H]2N)[C@H](O)[C@@H](O)[C@@H]1O [kanamycin] | 0 | 0 |  | not inhibited | not inhibited | not inhibited |  | not inhibited | 0 | 17 | 
5 | COc1cccc(OC)c1C(=O)N[C@@H]1C(=O)N2[C@@H]1SC(C)(C)[C@@H]2C(=O)O [methicillin] | 0 | 0 | not inhibited |  |  |  | inhibited |  | 0 | 0 | inhibited
6 | CCn1cc(C(=O)O)c(=O)c2ccc(C)nc21 [nalidixic acid] | 0 | 18 | inhibited |  |  |  | inhibited |  | 0 | 0 | inhibited
7 | O=C1CN(/N=C/c2ccc([N+](=O)[O-])o2)C(=O)N1 [nitrofurantoin] |  |  |  |  |  |  |  |  |  |  | not inhibited
8 | CO[C@H]1C[C@H](O[C@H]2[C@H](C)[C@@H](O[C@@H]3O[C@H](C)C[C@H](N(C)C)[C@H]3O)[C@@H](C)C[C@@]3(CO3)C(=O)[C@H](C)[C@@H](O)[C@@H](C)[C@@H](C)OC(=O)[C@@H]2C)O[C@@H](C)[C@@H]1O [oleandomycin] | 0 | 0 | not inhibited | not inhibited | inhibited | inhibited | inhibited | not inhibited | 100 | 100 | 
9 | CC1(C)S[C@@H]2[C@H](NC(=O)Cc3ccccc3)C(=O)N2[C@H]1C(=O)O [penicillin G] |  |  | inhibited | not inhibited | inhibited | inhibited | inhibited | not inhibited |  |  | inhibited
10 | CO[C@H]1/C=C/O[C@@]2(C)Oc3c(C)c(O)c4c(O)c(c(/C=N/N5CCN(C)CC5)c(O)c4c3C2=O)NC(=O)/C(C)=C\C=C\[C@H](C)[C@H](O)[C@@H](C)[C@@H](O)[C@@H](C)[C@H](OC(C)=O)[C@@H]1C [rifampicin] | 14 | 64 | not inhibited |  |  |  | not inhibited | not inhibited | 67 | 83 | 
11 | Cc1cc(NS(=O)(=O)c2ccc(N)cc2)no1 [sulphamethoxazole] |  |  | inhibited |  |  |  | not inhibited |  |  |  | 
12 | CN(C)[C@@H]1C(O)=C(C(N)=O)C(=O)[C@@]2(O)C(O)=C3C(=O)c4c(O)cccc4[C@@](C)(O)[C@H]3C[C@@H]12 [tetracycline] | 14 | 9 |  | not inhibited | not inhibited | not inhibited |  | not inhibited | 33 | 17 | 
13 | COc1cc(Cc2cnc(N)nc2N)cc(OC)c1OC [trimethoprim] |  |  | inhibited |  |  |  | not inhibited |  |  |  | not inhibited
14 | CN[C@H](CC(C)C)C(=O)N[C@H]1C(=O)N[C@@H](CC(N)=O)C(=O)N[C@H]2C(=O)N[C@H]3C(=O)N[C@H](C(=O)N[C@H](C(=O)O)c4cc(O)cc(O)c4-c4cc3ccc4O)[C@H](O)c3ccc(c(Cl)c3)Oc3cc2cc(c3O[C@@H]2O[C@H](CO)[C@@H](O)[C@H](O)[C@H]2O[C@H]2C[C@](C)(N)[C@H](O)[C@H](C)O2)Oc2ccc(cc2Cl)[C@H]1O [vancomycin] | 0 | 0 | not inhibited | not inhibited | inhibited | inhibited |  | not inhibited | 100 | 83 | 
15 | Gentamycin | 0 | 0 |  |  |  |  |  |  | 67 | 50 | 
16 | gentamicin |  |  | not inhibited | not inhibited | inhibited | not inhibited | inhibited | not inhibited |  |  | inhibited
17 | neomycin | 0 | 0 | inhibited | not inhibited | not inhibited | not inhibited |  | not inhibited | 0 | 0 | 
18 | polymixin | 0 | 0 | inhibited | not inhibited | not inhibited | not inhibited | not inhibited | not inhibited | 0 | 0 | 
